From US4477464A, “Hetero-benzazepine derivatives and their pharmaceutical use” (Ciba-Geigy Corporation, priority 1983, dated 1984) come the findings set out here.

Structures can show the parent of a compound that is named as a salt.

In experiment [1] the target is T1, angiotensin-converting enzyme (Oryctolagus cuniculus, UniProt P12822).
T1 construct: angiotensin-converting enzyme preparation (from lungs of adult male rabbits); from tissue; host or cells: lungs of adult male rabbits
T1 sequence (P12822 34-1310): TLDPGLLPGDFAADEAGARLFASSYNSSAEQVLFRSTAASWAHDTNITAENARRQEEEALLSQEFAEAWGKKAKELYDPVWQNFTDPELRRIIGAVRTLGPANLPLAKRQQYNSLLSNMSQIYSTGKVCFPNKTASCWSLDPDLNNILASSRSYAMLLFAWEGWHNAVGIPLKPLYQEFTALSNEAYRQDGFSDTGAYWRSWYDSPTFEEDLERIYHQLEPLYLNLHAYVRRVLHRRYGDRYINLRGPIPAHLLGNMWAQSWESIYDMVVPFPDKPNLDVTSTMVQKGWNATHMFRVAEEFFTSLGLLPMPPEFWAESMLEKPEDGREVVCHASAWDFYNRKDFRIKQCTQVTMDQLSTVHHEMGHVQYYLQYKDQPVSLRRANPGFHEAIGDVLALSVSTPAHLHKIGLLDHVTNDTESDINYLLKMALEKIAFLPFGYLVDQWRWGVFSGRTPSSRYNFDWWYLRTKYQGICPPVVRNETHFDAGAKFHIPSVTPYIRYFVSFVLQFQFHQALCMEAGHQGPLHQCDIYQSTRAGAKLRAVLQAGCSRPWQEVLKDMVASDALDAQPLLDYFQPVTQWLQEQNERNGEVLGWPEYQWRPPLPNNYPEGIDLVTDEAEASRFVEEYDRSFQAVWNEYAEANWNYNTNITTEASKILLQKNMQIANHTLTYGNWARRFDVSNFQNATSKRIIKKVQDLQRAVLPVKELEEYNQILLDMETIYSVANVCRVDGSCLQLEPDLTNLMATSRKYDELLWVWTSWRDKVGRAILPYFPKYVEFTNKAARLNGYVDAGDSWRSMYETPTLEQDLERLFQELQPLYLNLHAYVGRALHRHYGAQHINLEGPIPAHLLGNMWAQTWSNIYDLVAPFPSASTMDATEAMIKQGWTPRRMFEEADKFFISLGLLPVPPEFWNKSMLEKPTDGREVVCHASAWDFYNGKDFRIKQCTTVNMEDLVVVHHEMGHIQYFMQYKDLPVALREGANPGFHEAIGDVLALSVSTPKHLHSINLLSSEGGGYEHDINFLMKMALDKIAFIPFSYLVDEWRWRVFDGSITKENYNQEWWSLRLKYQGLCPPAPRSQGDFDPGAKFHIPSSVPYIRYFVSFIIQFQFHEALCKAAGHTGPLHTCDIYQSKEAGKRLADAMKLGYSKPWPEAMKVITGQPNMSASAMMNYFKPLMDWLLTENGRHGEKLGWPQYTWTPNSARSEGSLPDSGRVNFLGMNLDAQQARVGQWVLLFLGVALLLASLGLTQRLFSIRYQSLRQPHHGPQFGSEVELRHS
The experiment can be described thus: in vitro inhibition of angiotensin-converting enzyme (hippuryl-histidyl-leucine substrate). Type of experiment: biochemical, rabbit. The following applies: angiotensin-converting enzyme preparation from lungs of adult male rabbits, 37° C., 30 minutes. How it is done:
Biophys. Acta 293, 451 (1973). According to this method, said compounds are dissolved at about 1 mM concentration in phosphate buffer. To 100 microliters of solutions of the test compound in phosphate buffer, diluted to the desired concentration, are added 100 microliters of 5 mM hippuryl-histidyl-leucine in phosphate buffer, followed by 50 microliters of the angiotensin-converting enzyme preparation (from lungs of adult male rabbits) in Tris buffer, containing potassium and magnesium chloride, as well as sucrose. Said solutions are incubated at 37° C. for 30 minutes and combined with 0.75 ml of 0.6N aqueous sodium hydroxide to stop further reaction. Then 100 microliters of a 0.2% solution of o-phthalaldehyde in methanol are added at room temperature, and 10 minutes later 100 microliters of 6N hydrochloric acid. These samples are read against water in a spectrophotometer set at 360 nm, and the optical densities thereof estimated. They are corrected for the standard curve via a conversion factor expressing nanomoles of histidyl-leucine formed during said 30 minute incubation period. The results are plotted against drug concentration to determine the IC50, i.e., the drug concentration which gives half the activity of the control sample containing no drug.

For experiment [2], the system named is spontaneously hypertensive rats. The experiment can be described thus: antihypertensive effect in spontaneously hypertensive rats, indirect systolic pressure. The following applies: 10 mg/kg p.o. It is filed as in vivo, rat. On the procedure: The in vivo lowering effect on the blood pressure is recorded, either directly by means of a catheter, placed in the test animal's femoral artery, or indirectly by sphygmomanometry at the rat's tail or a transducer. The blood pressure is recorded in mm Hg prior to and after dosing.
Thus the antihypertensive effects are demonstrable in spontaneously hypertensive rats by indirect measurement of systolic pressure. Conscious rats are placed individually in restraint cages within a gently warmed chamber. A rubber pulse sensor is placed distal to an inflatable occlusive cuff on each rat's tail. The cuff is periodically inflated to occlude the tail artery, and systolic pressure is recorded as the point where the first discernible pulse emerges along the decaying calibrated pressure curve. After obtaining control values of blood pressure and heart rate, test compounds are administered orally once daily for 4 consecutive days. Additional blood pressure measurements are usually made at 2.0, 4.0 and 23.5 hours after each daily dosing, and responses are compared to those of rats dosed with the treatment vehicle.
Illustrative of the invention, the compound of example 3a at a dose of 10 mg/kg p.o. lowers blood pressure by about 35 mm Hg.

The test system of experiment [3] is angiotensin-converting enzyme. In words: inhibition of Angiotensin I induced pressor response in normotensive rats. Type of experiment: in vivo, rat. Particulars: normotensive anesthetized rats, 10 mg/kg p.o., measured 2 to 4 hours after administration. On the procedure: Angiotensin I is hydrolyzed by the action of said converting enzyme to the potent pressor substance Angiotensin II. The inhibition of said enzyme prevents the generation of Angiotensin II from I and, therefore, attenuates any pressor response following an Angiotensin I challenge.
The corresponding in vivo test is performed with male, normotensive rats, which are anesthetized with sodium 5-ethyl-5-(1-methylpropyl)-2-thiobarbiturate. A femoral artery and saphenous vein are cannulated respectively for direct blood pressure measurement and the i.v. administration of Angiotensin I and a compound of this invention. After the basal blood pressure is stabilized, pressor responses to 3 challenges of 333 ng/kg angiotensin I i.v., at 5 minute intervals, are obtained. Such pressure responses are usually again obtained at time intervals after i.v. or p.o. administration of the compound to be tested, and compared with the initial responses. Any observed decrease of said pressor response is an indication of Angiotensin I converting enzyme inhibition. Illustrative of this invention, the compound of example 3a inhibits the pressor response following angiotensin I challenge by about 70% at a dose of 10 mg/kg p.o. as measured 2 to 4 hours after administration.

On to `O=C(O)CN1C(=O)[C@@H](NC(CCc2ccccc2)C(=O)O)CSc2ccccc21` (stereo partly drawn) [Example 2, (3R)-[N-(1-carboxy-3-phenylpropyl)amino]-5-carboxymethyl-2,3-dihydro-1,5-benzothiazepin-4(5H)-one], for which, in experiment [1], the 50% inhibitory concentration (IC50) is roughly 10 nM.

On to `CCOC(=O)[C@H](CCc1ccccc1)N[C@H]1CSc2ccccc2N(CC(=O)O)C1=O` [Example 3a, (3R)-{N-[(1S)-carboethoxy-3-phenylpropyl]amino}-5-carboxymethyl-2,3-dihydro-1,5-benzothiazepin-4(5H)-one hydrochloride], for which, in experiment [2], the “lowering of blood pressure” value is reported as “about 35 mm Hg”. Further, in experiment [3], the “inhibition of pressor response following angiotensin I challenge” value is recorded as “about 70%”.

The molecule `O=C(O)CN1C(=O)[C@@H](N[C@@H](CCc2ccccc2)C(=O)O)CSc2ccccc21` [Example 6, (3R)-{N-[(1S)-carboxy-3-phenylpropyl]amino}-5-carboxymethyl-2,3-dihydro-1,5-benzothiazepin-4(5H)-one] had an IC50 in experiment [1] of roughly 3 nM.

Take `O=C(O)CN1C(=O)[C@@H](N[C@@H](CCc2ccccc2)C(=O)O)C[S+]([O-])c2ccccc21` (stereo partly drawn) [Example 12, (3R)-{N-[(1S)-carboxy-3-phenylpropyl]amino}-5-carboxymethyl-2,3-dihydro-1-oxo-1,5-benzothiazepin-4(5H)-one]: in experiment [1], the IC50 is roughly 6 nM.

Take `NCCCCC(N[C@H]1CSc2ccccc2N(CC(=O)O)C1=O)C(=O)O` (stereo partly drawn) [Example 14, (3R)-[N-(1-carboxy-5-aminopentyl)amino]-5-carboxymethyl-2,3-dihydro-1,5-benzothiazepin-4(5H)-one dihydrochloride]: the IC50 in experiment [1] is roughly 28 nM.

As usually defined, the IC50 is the point on the concentration scale where inhibition reaches its midpoint. The low end stands for higher potency, the high end for lower potency.
